Data taken from ChEMBL document CHEMBL5150066, “Synthesis of estrone selenocyanate Compounds, anti-tumor activity evaluation and Structure-activity relationship analysis” (Bioorg Med Chem, 2022).

Assays:
T47D = test: Antiproliferative activity against human T47D cells assessed as inhibition of cell growth incubated for 72 hrs by MTT assay; assay type: functional, cell-based
HeLa [1] = test: Antitumor activity against human HeLa cells xenografted in wildtype zebrafish AB yolk sac assessed as tumor fluorescence area at 15 uM measured immediately by fluorescence based assay; assay type: functional
HeLa [2] = test: Antitumor activity against human HeLa cells xenografted in wildtype zebrafish AB yolk sac assessed as tumor fluorescence area at 15 uM measured 48 hrs post injection by fluorescence based assay; assay type: functional
HeLa [3] = test: Antitumor activity against human HeLa cells xenografted in wildtype zebrafish AB yolk sac assessed as tumor fluorescence intensity at 15 uM measured 48 hrs post injection by fluorescence based assay; assay type: functional
[4] = Cytotoxicity against HEK293T cells assessed as inhibition of cell growth incubated for 72 hrs by MTT assay; assay type: toxicity, cell-based, HEK-293T; settings: human
MCF7 = test: Antiproliferative activity against human MCF7 cells assessed as inhibition of cell growth incubated for 72 hrs by MTT assay; assay type: functional, cell-based; settings: MCF7, 72 h
HeLa [5] = test: Antitumor activity against human HeLa cells xenografted in wildtype zebrafish AB yolk sac assessed as tumor fluorescence intensity at 15 uM measured immediately by fluorescence based assay; assay type: functional
[6] = Selectivity index, ratio of IC50 for cytotoxicity against HEK293T cells to IC50 for antiproliferative activity against human HeLa cells; assay type: toxicity, cell-based; settings: HEK293T cells versus HeLa cells, read-out: Ratio IC50
HepG2 = test: Antiproliferative activity against human HepG2 cells assessed as inhibition of cell growth incubated for 72 hrs by MTT assay; assay type: functional, cell-based; settings: HepG2, 72 h
SK-OV-3 = test: Antiproliferative activity against human SK-OV-3 cells assessed as inhibition of cell growth incubated for 72 hrs by MTT assay; assay type: functional, cell-based; settings: SK-OV-3, 72 h
HeLa [7] = test: Antiproliferative activity against human HeLa cells assessed as inhibition of cell growth incubated for 72 hrs by MTT assay; assay type: functional, cell-based

C[C@]12CC[C@@H]3c4ccc(OCCCCC[Se]C#N)cc4CC[C@H]3[C@@H]1CCC2=O
IC50 (T47D): 68.2 µM
Activity (HeLa [1]): 79354.17 pixel
Activity (HeLa [2]): 12391.83 pixel
Flu intensity (HeLa [3]): 5328.6
IC50 at 72 h [4]: 77.2 µM
IC50 (MCF7): 38.3 µM
Flu intensity (HeLa [5]): 43169.53
selectivity ratio [6]: 8.1
IC50 (HepG2): > 100 µM
IC50 (SK-OV-3): 31 µM
IC50 (HeLa [7]): 9.5 µM
